# What was measured:
# [1] = system: JHU29; assay: MTT cytotoxicity assay, JHU29; assay type: cell-based; conditions: Table 3, 48 hr, Head & Neck (HPV −ve)
# Experimental: The cytotoxic efficacy of selected compounds was assessed against multiple myeloma (MM) cell lines, as this is a validated clinical target for the licensed proteasome inhibitors.
# (§1) Cell lines and cytotoxicity assays: All cell lines were obtained from the American Type Culture Collection (ATCC) and cultured in the specified medium supplemented with 10% fetal bovine serum, 100 IU/mL penicillin, and 100 μg/mL streptomycin at 37° C. in a humidified 5% CO2/95% air incubator. […] To assess drug cytotoxicity, cells were seeded at 2,500 cells/well (10,000 cells/well for MM lines) in 100 μL medium in 96-well plate and after 24 treated with compounds for 72 h, incubated according to the manufacturer's protocol with the Thiazolyl Blue Tetrazolium Bromide (Sigma, M2128) and A570 measured using a Benchmark Plus microplate spectrophotometer (BIO-RAD). IC50 data was analyzed by Graphpad Prism software. In the chirality studies the cells were treated with compounds for 48 h, and the cells were incubated and measured via the preceeding protocols.
# [2] = system: DU145; assay: MTT cytotoxicity assay, DU145; conditions: Homo sapiens, DU-145, read-out: cytotoxicity IC50 DU145
# Experimental: as §1
# [3] = target: RPN13 (Homo sapiens, UniProt Q16186); assay: RA183B competition / direct biotin labelling of RPN13 in cell lysate; assay type: binding; conditions: SKOV3 cell lysate pre-treated with compound, labelled with RA183B
# Experimental: It has been shown preciously that RA183 adducts Cysteine 88 of RPN13 (13). […] Samples were subjected to SDS-PAGE and transferred to a PVDF membrane. The membrane was probed with HRP-Streptavidin antibody, and the blot developed using chemiluminescence.
# A direct labelling assay in cell lysate of ES2, a human ovarian cancer-derived cell line, using RA413B and RA183B was performed.
# Biotin labeling Assay: Clarified cell lysate in MPER buffer was pretreated with streptavidin magna beads for 45 min at 4° C. to deplete non-specific biotinylated proteins in the cell lysate. The beads were separated and 40 μL of the pre-cleared cell lysate was incubated with compounds (20 μM) for 45 min at 4° C., and then treated with RA183B, RA190B, or RA413SB (10 μM) for 45 min at 4° C. Next, the samples were mixed with Laemmli sample buffer (BioRad) and boiled for 5 min. […] (24 V). The membrane was blocked with 5% BSA in PBST for 1 hr at RT and washed for 20 minutes (3× with PBST). Then the membrane was probed with HRP-streptavidin (1:10,000 in PBST) for 1 hr at RT, washed for 30 min (3× with PBST), and developed using HyGLO chemiluminescent detection reagent (Denville) for biotin detection.
# Chain of RPN13 (Q16186 whole entry): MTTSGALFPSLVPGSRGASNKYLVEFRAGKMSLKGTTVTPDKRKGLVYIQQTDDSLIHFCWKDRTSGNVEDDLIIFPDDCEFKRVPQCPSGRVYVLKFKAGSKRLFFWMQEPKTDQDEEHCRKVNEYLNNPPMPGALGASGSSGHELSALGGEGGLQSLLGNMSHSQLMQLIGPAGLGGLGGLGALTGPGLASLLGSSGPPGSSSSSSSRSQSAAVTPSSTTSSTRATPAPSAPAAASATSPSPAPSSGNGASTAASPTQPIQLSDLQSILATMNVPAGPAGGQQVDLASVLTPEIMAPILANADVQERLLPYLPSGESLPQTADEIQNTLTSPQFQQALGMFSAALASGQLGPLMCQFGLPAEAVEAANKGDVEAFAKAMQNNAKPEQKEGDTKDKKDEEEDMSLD
smiles,measurement,setting,value
O=C(CCl)N[C@@H](Cc1ccccc1)C(=O)N1C/C(=C\c2ccc([N+](=O)[O-])cc2)C(=O)/C(=C/c2ccc([N+](=O)[O-])cc2)C1 [RA375],IC50,[1],0.173 µM
CC1/C(=C\c2ccc([N+](=O)[O-])cc2)C(=O)/C(=C/c2ccc([N+](=O)[O-])cc2)CN1C(=O)[C@H](Cc1ccccc1)NC(=O)CCl (stereo partly drawn) [RA414],IC50,[2],0.017 µM
same,competition with RA183B binding to RPN13,[3],inhibited by pre-incubation with RA414
